Values of other authors as cited in patent US20250275953A1, “VODOBATINIB FOR REDUCING PROGRESSION OF PARKINSON'S DISEASE” (Sun Pharma Advanced Research Company Ltd., priority 2022, published 2025).

Settings: nilotinib 150 and 300 mg; cited from earlier work

## Cc1cn(-c2cc(NC(=O)c3ccc(C)c(Nc4nccc(-c5cccnc5)n4)c3)cc(C(F)(F)F)c2)cn1 [Nilotinib, nilotinib]
  efficacy in Parkinson's disease patients: not efficacious
